According to patent US5571685A (priority 1992, dated 1996):
Like-named read-outs stand apart in the source and are kept apart here.

Key:
morphinone reductase [1] = target: T1, morphinone reductase (Pseudomonas putida, UniProt Q51990); conditions: for Enzyme activity in the reverse direction: reverse reaction; for Enzyme activity against compound as substrate: forward (reduction) direction, with NADH
morphinone reductase [2] = target: T1, morphinone reductase; experiment: biochemical; parameters: initiator Met absent; species or system Pseudomonas putida M10; conditions: for remaining activity at 500 µM / remaining activity at 1000 µM: read-out: Activity as percentage of control activity; for Inhibition of enzyme (in words): pre-incubation with purified enzyme; for remaining activity at 1000 µM: 1 mM
Protocol: Assays were carried out at 30° C.
Purified enzyme was incubated with the following possible inhibitors: copper sulphate, the thiol-blocking agent p-hydroxymercuribenzoate (pHMB), the thiol-reducing agent dithiothreitol (DTT) and the metal-complexing agents ethylenediaminetetraacetic acid (EDTA) and 8- hydroxyquinoline (8HQ). Incubation was in the standard assay mixture without codeinone or NADH, firstly for 30 min at room temperature and secondly for 16 hours at 4° C. The enzyme concentration was approximately 3.3 μg/ml, 1/100 that of the purified enzyme stock.

morphinone reductase [3] = target: T1, morphinone reductase; experiment: Inhibition of the reaction with codeinone by compounds added to the standard assay mixture; format: biochemical, Pseudomonas putida M10; parameters: initiator Met absent; conditions: for Inhibition of the reaction with codeinone: added at 0.3 mM to the standard assay mixture
Protocol: Enzyme activity was tested with a variety of substrates.

morphinone reductase [4] = target: T1, morphinone reductase; experiment: Coupled enzyme system (morphine dehydrogenase then morphinone reductase), HPLC analysis; format: biochemical, Pseudomonas putida M10; parameters: initiator Met absent
Protocol: Reverse-phase HPLC analysis was performed on a Waters component system (Millipore Waters U.K. Limited, Watford) consisting of a model 510 pump, a model 712 WISP autoinjector and a Waters 994 programmable photodiode array detector set to 235 nm and 280 nm, 0-1 V fsd. Separation of samples (50 μl ) was achieved on a 5 μm C18 Spherisorb ODS column (4.6×250mm) (Anachem limited, Luton) with an isocratic solvent system, delivered at a flow rate of 1 ml/min. The mobile phase consisted of filter-sterilised 15 mM KH2 PO4 (adjusted to pH 3.5 with 1 M H3 PO4) in 30% (v/v) HPLC grade acetonitrile (degassed for 40 min prior to use). Integrations were performed using Maxima 820 software and UV absorbance scans of resultant peaks were measured between 190 and 350 nm using the programmable photodiode array detector.
At regular intervals, 1 ml samples were removed and the reaction stopped by the addition of 2 μl glacial acetic acid (HPLC grade). The precipitated protein was subsequently pelleted at 13,000 rpm in an MSE microfuge.

[5] = target: T2, deflavo-morphinone reductase (Pseudomonas putida, UniProt Q51990); experiment: Reconstitution of deflavo-morphinone reductase by incubation with flavins; format: biochemical, Pseudomonas putida M10
T2 construct: FMN removed by ammonium sulphate (apoenzyme); initiator Met absent
Protocol: Flavin was dissociated from morphinone reductase by boiling for 3 minutes and removal of denatured protein by ultrafiltration. […] Thin layer chromatography (TLC) of flavins was performed on silica plates using solvent systems 2 and 4 of Fazekas and Kokai (Met. Enzymol. (1971) 18B:385-398), viz. 12:3:5 n-butanol:acetic acid:water and 2% disodium hydrogen phosphate in water. Flayins on TLC plates were visualised by their yellow fluorescence when illuminated by ultraviolet light at 366 nm. Luciferase assay of flavins was performed using the commercially-availablepreparation of Vibrio harveyii luciferase of Sigma. The reaction mixture contained 0.1 mg/ml luciferase preparation, 0.1 mg/ml bovine serum albumin, 0.2 mM n-decanal, 0.5 mM NADH and 1.5mM dithiothreitol. Assays were carried out at 24° C. and light emission was measured using a BioOrbit 1250 Luminometer (Labsystems (UK) Ltd., Basingstoke, U.K.). Deflavomorphinone reductase was prepared by ammonium sulphate treatment, as described by Husain and Massey (1978) Met. Enzymol. 53:429-437.
The liberated flavin comigrated with flavin mononucleotide (FMN) and not with flavin adenine dinucleotide (FAD) or riboflavin in two thin layer chromatography systems. The liberated flavin gave a positive result in the luciferase assay which is highly specific for FMN (Chappelle and Picciolo, Met. Enzymol (1971) 18B:381-385). […]

[6] = system: COc1ccc2c3c1O[C@H]1C(=O)CC=C4[C@@H](C2)N(C)CC[C@]431; experiment: purified protein, by the assay type; conditions: 30.0 °C
[7] = system: NC(=O)C1=CN([C@@H]2O[C@H](COP(=O)(O)OP(=O)(O)OC[C@H]3O[C@@H](n4cnc5c(N)ncnc54)[C@H](O)[C@@H]3O)[C@@H](O)[C@H]2O)C=CC1; experiment: purified protein, by the assay type; conditions: 30.0 °C
[8] = system: COc1ccc2c3c1O[C@H]1C(=O)C=C[C@H]4[C@@H](C2)N(C)CC[C@]314; experiment: purified protein, by the assay type; conditions: 30.0 °C

COc1ccc2c3c1O[C@H]1C(=O)CC[C@H]4[C@@H](C2)N(C)CC[C@]314 [hydrocodone]
Enzyme activity in the reverse direction (morphinone reductase [1]): No activity in the reverse direction

O=C(O)CN(CCN(CC(=O)O)CC(=O)O)CC(=O)O [EDTA, ethylenediaminetetraacetic acid]
remaining activity at 500 µM (morphinone reductase [2]; 0.5 h): 100% | remaining activity at 500 µM (morphinone reductase [2]; 16 h): 97%

CC(=O)[C@H]1CC[C@H]2[C@@H]3CCC4=CC(=O)CC[C@]4(C)[C@H]3CC[C@]12C [progesterone]
Inhibition of the reaction with codeinone (morphinone reductase [3]): inhibit greatly | Enzyme activity against compound as substrate (morphinone reductase [1]): No activity

CN1CC[C@]23c4c5ccc(O)c4O[C@H]2C(=O)C=C[C@H]3[C@H]1C5 [morphinone]
Enzyme activity against compound as substrate (morphinone reductase [4]): Activity against morphinone was demonstrated

COc1ccc2c3c1O[C@H]1C(=O)C=C[C@H]4[C@@H](C2)N(C)CC[C@]314 [Codeinone, codeinone]
Enzyme activity against compound as substrate (morphinone reductase [1]): Activity was detected

CN1CC[C@]23c4c5ccc(O)c4O[C@H]2C(=O)CC[C@@]3(O)[C@H]1C5 [oxymorphone]
Enzyme activity in the reverse direction (morphinone reductase [1]): No reverse reaction

O=C1C=CCCC1 [2-cyclohexen-1-one]
Inhibition of activity against codeinone (morphinone reductase [3]; added to the standard assay at 1 mM): inhibited the reaction with codeinone | Enzyme activity against compound as substrate (morphinone reductase [1]): Very slight activity

COc1ccc2c3c1O[C@H]1[C@@H](O)CC[C@H]4[C@@H](C2)N(C)CC[C@@]341 [dihydrocodeine]
Enzyme activity in the reverse direction (morphinone reductase [1]): No reverse reaction

Cc1cc2nc3c(=O)[nH]c(=O)nc-3n(C[C@H](O)[C@H](O)[C@H](O)COP(=O)(O)OP(=O)(O)OC[C@H]3O[C@@H](n4cnc5c(N)ncnc54)[C@H](O)[C@@H]3O)c2cc1C [FAD, flavin adenine dinucleotide]
Restoration of enzyme activity after incubation with flavin (in words) [5]: did not cause restoration

COc1ccc2c3c1O[C@H]1C(=O)CC[C@@]4(O)[C@@H](C2)N(C)CC[C@]314 [oxycodone]
Enzyme activity in the reverse direction (morphinone reductase [1]): No reverse reaction

NC(=O)C1=CN([C@@H]2O[C@H](COP(=O)(O)OP(=O)(O)OC[C@H]3O[C@@H](n4cnc5c(N)ncnc54)[C@H](OP(=O)(O)O)[C@@H]3O)[C@@H](O)[C@H]2O)C=CC1 [NADPH]
Enzyme activity with alternative cofactor (morphinone reductase [1]; NADPH replaced NADH): No activity

C[C@]12CCC(=O)C=C1CC[C@@H]1[C@@H]2C(=O)C[C@@]2(C)[C@H]1CC[C@]2(O)C(=O)CO [cortisone]
Inhibition of the reaction with codeinone (morphinone reductase [3]): inhibit greatly | Enzyme activity against compound as substrate (morphinone reductase [1]): No activity

O=C(O)c1cc[c]([Hg+])cc1.[OH-] [pHMB, p-hydroxymercuribenzoate]
Activity as percentage of control activity (morphinone reductase [2]; 0.01 mM, 30 min 20°C.): 37% | Activity as percentage of control activity (morphinone reductase [2]; 0.01 mM, 16 h 4°C.): 19% | Activity as percentage of control activity (morphinone reductase [2]; 0.02 mM, 30 min 20°C.): 0% | Inhibition of enzyme (in words) (morphinone reductase [2]): highly inhibitory

COc1ccc2c3c1O[C@H]1[C@@H](O)C=C[C@H]4[C@@H](C2)N(C)CC[C@@]341 [codeine]
Enzyme activity against compound as substrate (morphinone reductase [1]): No activity

COc1ccc2c3c1O[C@H]1C(=O)CC=C4[C@@H](C2)N(C)CC[C@]431 [Neopinone, neopinone]
Enzyme activity against compound as substrate (morphinone reductase [1]): Activity was detected

morphinone reductase (Pseudomonas putida)
Km [6]: 430 µM | Vmax [6]: 16.6 U/mg | kcat [6]: 23.0 s⁻¹ | kcat/Km [6]: 53500 M⁻¹ s⁻¹ | Km [7]: 50 µM | Km [8]: 250 µM | Vmax [8]: 32.0 U/mg | kcat [8]: 44.4 s⁻¹ | kcat/Km [8]: 178000 M⁻¹ s⁻¹

O[C@H](CS)[C@H](O)CS (racemic) [DTT, dithiothreitol]
remaining activity at 1000 µM (morphinone reductase [2]; 16 h 4°C.): 94% | remaining activity at 1000 µM (morphinone reductase [2]; 0.5 h, 30 min 20°C.): 94%

O=S(=O)([O-])[O-].[Cu+2] [CuSO4, copper sulphate]
Activity as percentage of control activity (morphinone reductase [2]; 0.01 Mm, 30 min 20°C.): 0% | Inhibition of enzyme (in words) (morphinone reductase [2]): highly inhibitory

COc1ccc2c3c1O[C@H]1[C@H](O)C=C[C@H]4[C@@H](C2)N(C)CC[C@@]341 [isocodeine]
Enzyme activity against compound as substrate (morphinone reductase [1]): No activity

Oc1cccc2cccnc12 [8HQ, 8-hydroxyquinoline]
Activity as percentage of control activity (morphinone reductase [2]; morphinone reductase, 30 min, 50 µM): 94 | Activity as percentage of control activity (morphinone reductase [2]; morphinone reductase, 960 min, 50 µM): 91
